Tests used:
Assay type in all cases: biochemical
FGFR1 = target: T1, FGFR1 (Homo sapiens, UniProt P11362); assay: FGFR1 kinase assay, residual ATP luminescence; conditions: poly(glu4tyr), 2.5 uM ATP, 60 minutes at 37 C
T1 construct: purchased Panvera/Invitrogen
Protocol: (§1) The ability of compounds of the present invention to inhibit the activity of three groups of kinases was tested. Kinases tested included the src family (primarily src and yes), the angiogenic growth factors receptors (FGFR1, PDGFRb and VEGFR2) and the ephrin, EphB4. All kinase reactions were conducted in 96-well plates with a final reaction volume of 50 ul.
(§2) FGFR1 and VEGFR2 kinase assays were similarly performed. FGFR1 (76 ng/well, Panvera/Invitrogen) was combined with 12.5 mg/ml poly(glu4tyr) (Sigma) and 2.5 uM ATP. VEGFR2 (14.1 U/well, Cell Signaling/ProQinase) was used with 0.3 mg/ml poly(glu4tyr) and 1.5 uM ATP. Both were incubated for 60 minutes at 37 C, and the residual ATP was measured via luminescence, per the procedure described above.

human Yes = target: T2, human Yes (Homo sapiens, UniProt P07947); assay: Yes kinase inhibition, luciferase-based residual ATP (KinaseGlo); conditions: recombinant human Yes, ATP 3 μM, PTK2 substrate, 90 minutes at room temperature
T2 construct: purchased Panvera/Invitrogen
T2 sequence (P07947 whole entry): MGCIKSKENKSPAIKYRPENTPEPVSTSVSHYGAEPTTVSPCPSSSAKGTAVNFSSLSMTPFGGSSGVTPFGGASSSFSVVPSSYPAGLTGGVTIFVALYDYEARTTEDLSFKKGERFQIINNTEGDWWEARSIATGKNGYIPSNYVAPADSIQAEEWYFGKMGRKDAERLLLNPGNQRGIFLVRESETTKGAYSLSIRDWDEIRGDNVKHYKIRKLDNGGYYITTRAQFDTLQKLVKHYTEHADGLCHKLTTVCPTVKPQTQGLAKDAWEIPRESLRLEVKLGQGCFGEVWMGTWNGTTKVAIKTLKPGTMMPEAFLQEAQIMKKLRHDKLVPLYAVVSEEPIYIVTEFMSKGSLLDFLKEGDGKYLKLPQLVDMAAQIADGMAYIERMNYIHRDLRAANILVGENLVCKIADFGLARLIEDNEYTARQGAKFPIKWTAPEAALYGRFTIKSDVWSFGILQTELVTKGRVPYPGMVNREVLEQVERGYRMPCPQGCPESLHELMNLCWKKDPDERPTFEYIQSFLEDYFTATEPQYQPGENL
Protocol: as §1
(§3) Recombinant human c-Src or Yes (28 ng/well, Panvera/Invitrogen, Madison Wis.), ATP (3 μM), a tyrosine kinase substrate (PTK2, 250 μM, Promega Corp., Madison Wis.), and test agents (at concentrations ranging from about 1 nM/l to about 100 μM/1), in the presence of Src kinase reaction buffer (Upstate USA, Lake Placid N.Y.). After reacting for about 90 minutes at room temperature, residual ATP was determined using a luciferase-based assay (KinaseGlo, Promega Corp.) as a measure of kinase activity. Data from four wells were then averaged and used to determine IC50 values for the test compounds (Prism software package, GraphPad Software, San Diego Calif.).

VEGFR2 = target: T3, VEGFR2 (Homo sapiens, UniProt P35968); assay: VEGFR2 kinase assay, residual ATP luminescence; conditions: VEGFR2, poly(glu4tyr), 1.5 uM ATP, 60 minutes at 37 C; read-out: Vegfr IC50
T3 construct: purchased Cell Signaling/ProQinase
T3 sequence (P35968 20-1356, species assumed): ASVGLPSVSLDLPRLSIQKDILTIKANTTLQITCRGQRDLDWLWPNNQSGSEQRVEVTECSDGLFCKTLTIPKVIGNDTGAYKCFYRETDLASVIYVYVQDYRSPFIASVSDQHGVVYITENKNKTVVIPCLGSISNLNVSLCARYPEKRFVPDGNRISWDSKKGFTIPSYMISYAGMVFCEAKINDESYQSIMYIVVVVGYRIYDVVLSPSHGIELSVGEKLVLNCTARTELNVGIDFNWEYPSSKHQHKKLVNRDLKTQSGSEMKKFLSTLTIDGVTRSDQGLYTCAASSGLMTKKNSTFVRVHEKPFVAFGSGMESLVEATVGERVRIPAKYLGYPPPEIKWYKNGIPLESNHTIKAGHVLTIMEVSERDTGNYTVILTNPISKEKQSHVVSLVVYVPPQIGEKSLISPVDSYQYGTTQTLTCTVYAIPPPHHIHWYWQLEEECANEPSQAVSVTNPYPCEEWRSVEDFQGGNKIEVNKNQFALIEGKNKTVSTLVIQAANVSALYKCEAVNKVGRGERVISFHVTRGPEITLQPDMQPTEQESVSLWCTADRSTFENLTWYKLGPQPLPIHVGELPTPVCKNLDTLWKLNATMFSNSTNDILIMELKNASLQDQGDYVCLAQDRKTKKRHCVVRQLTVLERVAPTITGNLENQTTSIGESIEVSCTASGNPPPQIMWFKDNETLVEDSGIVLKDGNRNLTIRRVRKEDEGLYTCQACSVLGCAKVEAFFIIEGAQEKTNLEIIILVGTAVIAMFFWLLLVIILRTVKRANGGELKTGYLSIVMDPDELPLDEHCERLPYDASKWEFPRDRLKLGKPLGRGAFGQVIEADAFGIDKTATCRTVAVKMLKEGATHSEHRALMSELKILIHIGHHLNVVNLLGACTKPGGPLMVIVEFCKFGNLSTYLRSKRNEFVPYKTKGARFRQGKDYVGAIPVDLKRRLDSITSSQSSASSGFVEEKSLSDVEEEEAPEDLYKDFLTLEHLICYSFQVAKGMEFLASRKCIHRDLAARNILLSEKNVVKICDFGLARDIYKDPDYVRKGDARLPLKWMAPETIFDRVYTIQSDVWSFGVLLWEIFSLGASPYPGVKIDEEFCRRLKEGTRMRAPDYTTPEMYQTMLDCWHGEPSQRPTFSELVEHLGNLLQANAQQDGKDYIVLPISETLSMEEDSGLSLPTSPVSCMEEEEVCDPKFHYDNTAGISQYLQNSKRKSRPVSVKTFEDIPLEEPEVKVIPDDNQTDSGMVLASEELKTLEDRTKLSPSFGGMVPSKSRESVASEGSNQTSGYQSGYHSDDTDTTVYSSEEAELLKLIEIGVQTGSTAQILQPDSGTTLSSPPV
Protocol: as §1, §2

EphB4 = target: T4, EphB4 (Homo sapiens, UniProt P54760); assay: EphB4 kinase assay, residual ATP luminescence; conditions: poly(glu4tyr), 6 uM ATP, 60 minutes at 37 C
T4 construct: purchased Upstate
T4 sequence (P54760 16-987): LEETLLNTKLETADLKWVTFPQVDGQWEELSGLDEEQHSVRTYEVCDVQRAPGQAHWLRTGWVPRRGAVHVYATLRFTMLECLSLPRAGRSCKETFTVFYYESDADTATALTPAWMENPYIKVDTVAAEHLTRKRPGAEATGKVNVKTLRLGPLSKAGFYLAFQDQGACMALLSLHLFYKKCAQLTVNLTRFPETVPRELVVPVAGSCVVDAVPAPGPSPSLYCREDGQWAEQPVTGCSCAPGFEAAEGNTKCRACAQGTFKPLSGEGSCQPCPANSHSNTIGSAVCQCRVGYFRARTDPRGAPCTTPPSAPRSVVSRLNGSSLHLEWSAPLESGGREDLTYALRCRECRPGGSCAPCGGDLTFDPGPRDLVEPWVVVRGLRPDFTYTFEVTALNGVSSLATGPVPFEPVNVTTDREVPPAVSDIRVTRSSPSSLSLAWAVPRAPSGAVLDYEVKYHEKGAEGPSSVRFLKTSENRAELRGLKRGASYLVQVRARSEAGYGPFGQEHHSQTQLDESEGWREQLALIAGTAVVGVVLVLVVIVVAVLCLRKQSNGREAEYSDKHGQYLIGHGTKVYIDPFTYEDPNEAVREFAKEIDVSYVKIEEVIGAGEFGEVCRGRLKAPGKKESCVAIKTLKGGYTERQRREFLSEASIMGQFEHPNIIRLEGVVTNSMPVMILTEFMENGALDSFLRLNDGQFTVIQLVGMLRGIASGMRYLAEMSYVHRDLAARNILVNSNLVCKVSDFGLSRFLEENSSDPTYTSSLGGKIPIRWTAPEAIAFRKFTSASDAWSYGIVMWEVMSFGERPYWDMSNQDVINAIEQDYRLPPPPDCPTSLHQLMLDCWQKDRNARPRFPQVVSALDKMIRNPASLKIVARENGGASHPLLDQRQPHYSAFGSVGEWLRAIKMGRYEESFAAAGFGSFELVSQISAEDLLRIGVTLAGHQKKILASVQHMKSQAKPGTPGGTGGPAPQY
Protocol: as §1
EphB4 kinase activity was similarly measured, using the luciferase-based technique described above. 28.9 mU/well EphB4 (Upstate) was reacted with 1 mg/ml poly(glu4tyr), 6 uM ATP and test reagents. The reaction was incubated for 60 minutes at 37 C and the residual ATP concentration was measured.

PDGFRb = target: T5, PDGFRb (Homo sapiens, UniProt P09619); assay: PDGFRb kinase assay, residual ATP luminescence; conditions: PTK2 peptide, 500 nM ATP, 60 minutes at 37 C; read-out: Pdgfrβ IC50
T5 construct: purchased Panvera/Invitrogen
T5 sequence (P09619 33-1106, species assumed): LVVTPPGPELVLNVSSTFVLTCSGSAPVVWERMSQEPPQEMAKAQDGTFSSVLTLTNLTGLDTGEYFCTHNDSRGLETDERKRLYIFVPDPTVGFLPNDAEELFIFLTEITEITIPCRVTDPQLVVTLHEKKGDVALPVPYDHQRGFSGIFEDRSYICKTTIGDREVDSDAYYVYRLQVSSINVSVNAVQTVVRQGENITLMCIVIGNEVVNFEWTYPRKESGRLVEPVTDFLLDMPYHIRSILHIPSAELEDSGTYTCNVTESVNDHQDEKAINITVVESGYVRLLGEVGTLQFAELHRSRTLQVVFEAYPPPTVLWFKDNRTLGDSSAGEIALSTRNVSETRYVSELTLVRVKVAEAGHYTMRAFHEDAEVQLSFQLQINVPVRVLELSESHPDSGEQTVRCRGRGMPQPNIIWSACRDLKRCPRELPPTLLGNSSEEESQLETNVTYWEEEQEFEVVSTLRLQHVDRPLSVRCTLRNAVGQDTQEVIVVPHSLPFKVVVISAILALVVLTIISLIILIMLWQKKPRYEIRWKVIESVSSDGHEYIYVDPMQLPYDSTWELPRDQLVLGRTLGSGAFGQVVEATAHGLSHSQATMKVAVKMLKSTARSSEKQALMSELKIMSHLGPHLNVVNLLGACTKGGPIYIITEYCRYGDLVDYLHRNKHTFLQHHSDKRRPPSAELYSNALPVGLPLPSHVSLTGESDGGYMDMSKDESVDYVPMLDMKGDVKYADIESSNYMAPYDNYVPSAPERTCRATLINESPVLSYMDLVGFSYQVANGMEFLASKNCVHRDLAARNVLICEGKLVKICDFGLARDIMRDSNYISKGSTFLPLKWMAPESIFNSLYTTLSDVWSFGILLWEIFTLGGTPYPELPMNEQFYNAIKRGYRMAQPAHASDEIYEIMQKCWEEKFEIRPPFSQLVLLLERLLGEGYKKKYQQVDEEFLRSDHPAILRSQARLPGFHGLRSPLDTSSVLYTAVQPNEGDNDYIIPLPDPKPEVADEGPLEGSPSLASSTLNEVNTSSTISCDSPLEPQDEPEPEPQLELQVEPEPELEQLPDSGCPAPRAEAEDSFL
Protocol: as §1
PDGFRb (0.16 ug/well, Panvera/Invitrogen) 500 nM ATP and the PTK2 peptide (700 uM) were combined with compound and reaction buffer as noted above for src. The reaction was incubated for 60 minutes at 37 C, and the residual ATP concentration was determined using the luciferase-based technique also noted above.

human c-Src = target: T6, human c-Src (Homo sapiens, UniProt P12931); assay: Src kinase inhibition, luciferase-based residual ATP (KinaseGlo); conditions: recombinant human c-Src, ATP 3 μM, PTK2 substrate, 90 minutes at room temperature
T6 construct: purchased Panvera/Invitrogen
T6 sequence (P12931 whole entry): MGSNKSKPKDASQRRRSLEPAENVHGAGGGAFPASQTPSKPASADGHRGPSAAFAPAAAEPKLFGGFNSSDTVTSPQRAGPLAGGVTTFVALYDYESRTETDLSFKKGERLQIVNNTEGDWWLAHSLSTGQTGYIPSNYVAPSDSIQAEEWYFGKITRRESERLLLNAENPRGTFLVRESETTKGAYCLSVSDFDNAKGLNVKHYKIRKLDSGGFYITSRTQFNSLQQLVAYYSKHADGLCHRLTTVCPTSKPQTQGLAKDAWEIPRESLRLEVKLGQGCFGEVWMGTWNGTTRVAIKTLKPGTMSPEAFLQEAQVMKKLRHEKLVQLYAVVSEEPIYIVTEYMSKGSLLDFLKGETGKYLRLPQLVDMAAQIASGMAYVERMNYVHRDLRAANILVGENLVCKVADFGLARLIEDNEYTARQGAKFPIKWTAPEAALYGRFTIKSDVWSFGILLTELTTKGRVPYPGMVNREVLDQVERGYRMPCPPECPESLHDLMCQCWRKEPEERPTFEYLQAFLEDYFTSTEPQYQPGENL
Protocol: as §1, §3

T1 sequence (P11362 22-822, species assumed): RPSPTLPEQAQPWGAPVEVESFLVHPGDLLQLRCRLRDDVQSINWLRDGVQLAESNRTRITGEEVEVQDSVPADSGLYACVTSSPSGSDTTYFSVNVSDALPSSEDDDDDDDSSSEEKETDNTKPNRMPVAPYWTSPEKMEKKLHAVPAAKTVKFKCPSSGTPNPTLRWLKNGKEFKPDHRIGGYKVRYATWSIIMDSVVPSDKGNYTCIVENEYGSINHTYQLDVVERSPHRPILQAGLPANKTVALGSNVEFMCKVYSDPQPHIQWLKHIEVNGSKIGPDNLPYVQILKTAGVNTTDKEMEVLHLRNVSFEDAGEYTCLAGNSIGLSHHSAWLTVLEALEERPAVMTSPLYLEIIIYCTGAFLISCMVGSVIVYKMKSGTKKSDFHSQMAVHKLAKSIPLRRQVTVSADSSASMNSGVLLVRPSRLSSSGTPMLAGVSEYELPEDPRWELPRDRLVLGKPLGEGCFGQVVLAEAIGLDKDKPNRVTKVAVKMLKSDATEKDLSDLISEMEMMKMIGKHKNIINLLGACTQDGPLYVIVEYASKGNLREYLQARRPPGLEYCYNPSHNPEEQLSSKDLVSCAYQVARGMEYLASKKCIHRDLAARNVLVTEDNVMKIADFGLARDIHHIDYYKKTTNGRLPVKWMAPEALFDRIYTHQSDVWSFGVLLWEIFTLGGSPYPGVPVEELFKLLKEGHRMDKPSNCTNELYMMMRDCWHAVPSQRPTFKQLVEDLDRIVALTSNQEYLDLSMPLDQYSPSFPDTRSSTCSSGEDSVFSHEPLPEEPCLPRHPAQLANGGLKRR

| IC50 (FGFR1) | IC50 (human Yes) | IC50 (VEGFR2) | IC50 (EphB4) | IC50 (PDGFRb) | IC50 (human c-Src) | Structure (SMILES) |
| --- | --- | --- | --- | --- | --- | --- |
| 5200 nM | 0.8 nM | 322 nM | – | – | – | O=C(Nc1cnc(Nc2ccc(S(=O)(=O)NCCN3CCCC3)cc2)nc1)c1cc(O)ccc1Cl [drawing 203] |
| > 10000 nM | 8 nM | > 10000 nM | 434 nM | 181 nM | – | O=C(Nc1cnc(Nc2cccc(OCCN3CCCC3)c2)nc1)c1c(Cl)cccc1Cl [drawing 202] |
| > 10000 nM | 26 nM | > 10000 nM | – | 206 nM | – | O=C(Nc1cnc(Nc2ccc(CCCN3CCCC3)cc2)nc1)c1c(Cl)cccc1Cl |
| 8200 nM | 4.4 nM | 257 nM | 59 nM | 6.3 nM | – | O=C(NCCN1CCCC1)c1ccc(Nc2ncc(NC(=O)c3cc(O)ccc3Cl)cn2)cc1 [drawing 208] |
| > 10000 nM | 6 nM | > 10000 nM | 190 nM | 138 nM | – | CC(C)N(CCO)C(=O)c1ccc(Nc2ncc(NC(=O)c3cc(O)ccc3Cl)cn2)cc1 [drawing 210] |
| 5400 nM | 1.9 nM | 310 nM | – | – | – | O=C(Nc1cnc(Nc2ccc(C(=O)N3CCNCC3)cc2)nc1)c1cc(O)ccc1Cl [drawing 205] |
| 7500 nM | 3.7 nM | 358 nM | – | – | – | O=C(Nc1cnc(Nc2ccc(S(=O)(=O)CCCN3CCCC3)cc2)nc1)c1cc(O)ccc1Cl [drawing 206] |
| 9400 nM | 10 nM | 360 nM | – | – | – | CN1CCN(C(=O)c2ccc(Nc3ncc(NC(=O)c4cc(O)ccc4Cl)cn3)cc2)CC1 [drawing 207] |
| 2100 nM | 19 nM | 614 nM | – | – | – | O=C(NCCN1CCCC1)c1csc(Nc2ncc(NC(=O)c3cc(O)ccc3Cl)cn2)n1 [drawing 209] |
| 5280 nM | 40 nM | 907 nM | – | 51 nM | – | Clc1cccc(Cl)c1CNc1cnc(Nc2ccc(OCCN3CCCC3)cc2)nc1 |
| 1000 nM | 3.1 nM | 870 nM | 89 nM | 13 nM | – | O=C(NCCN1CCCC1)c1ccc(Nc2ncc(NC(=O)c3cc(O)ccc3Cl)cn2)cn1 [drawing 204] |
| 20000 nM | 26 nM | 564 nM | 200 nM | 20 nM | – | O=C(Nc1cnc(Nc2ccc(OCCN3CCCC3)cc2)nc1)c1cc(O)ccc1Cl [drawing 200] |
| – | – | – | – | – | 53 nM | O=C(Nc1cnc(Nc2ccc(C(=O)N3CCN(CCO)CC3)nc2)nc1)c1cc(O)ccc1Cl [XLVIII, 2-Chloro-5-hydroxy-N-(2-{6-[4-(2-hydroxy-ethyl)-piperazine-1-carbonyl]-pyridin-3-ylamino}-pyrimidin-5-yl)-benzamide] |
| – | – | – | – | – | 462 nM | O=C(Nc1cnc(Nc2ccc(S(=O)(=O)CCCN3CCCC3)cc2)nc1)c1ccc(O)cc1Cl [XXXV, 2-Chloro-4-hydroxy-N-{2-[4-(3-pyrrolidin-1-yl-propane-1-sulfonyl)-phenylamino]-pyrimidin-5-yl}-benzamide] |
| – | – | – | – | – | 8000 nM | COc1ccc(Cl)c(C(=O)Nc2cnc(Nc3ccc(S(=O)(=O)CCCN4CCCC4)cc3)nc2)c1 [Compound 53, 2-Chloro-5-methoxy-N-{2-[4-(3-pyrrolidin-1-yl-propane-1-sulfonyl)-phenylamino]-pyrimidin-5-yl}-benzamide] |
| > 10000 nM | 6 nM | 138 nM | 190 nM | – | – | Clc1cccc(Cl)c1CNc1cnc(Nc2cccc(OCCN3CCCC3)c2)nc1 [drawing 211] |
| – | – | – | – | – | 129 nM | O=C(NCCN1CCCC1)c1ccc(Nc2ncc(NC(=O)c3c(Cl)cccc3Cl)cn2)cn1 [VIII, 5-[5-(2,6-Dichloro-benzoylamino)-pyrimidin-2-ylamino]-pyridine-2-carboxylic acid (2-pyrrolidin-1-yl-ethyl)-amide] |
| 7200 nM | 10 nM | 1260 nM | 109 nM | 13 nM | – | O=C(Nc1cnc(Nc2cccc(OCCN3CCCC3)c2)nc1)c1cc(O)ccc1Cl [drawing 201] |
| – | – | – | – | – | 55 nM | Oc1ccc(Cl)c(CNc2cnc(Nc3ccc(OCCN4CCCC4)cc3)nc2)c1 [XLI, 3-((2-(4-(2-(Pyrrolidin-1-yl)ethoxy)phenylamino)pyrimidin-5-ylamino)methyl)-4-chlorophenol] |
| – | – | – | – | – | 21 nM | O=C(Nc1cnc(Nc2cccc(OCCN3CCCC3)c2)nc1)c1cc(O)ccc1Cl [XLII, N-(2-(3-(2-(Pyrrolidin-1-yl)ethoxy)phenylamino)pyrimidin-5-yl)-2-chloro-5-hydroxybenzamide] |
| – | – | – | – | – | 338 nM | Cc1c(O)cccc1C(=O)Nc1cnc(Nc2ccc(S(=O)(=O)CCCN3CCCC3)cc2)nc1 [XXXIII, 3-Hydroxy-2-methyl-N-{2-[4-(3-pyrrolidin-1-yl-propane-1-sulfonyl)-phenylamino]-pyrimidin-5-yl}-benzamide] |
| – | – | – | – | – | 667 nM | CN1CCN(S(=O)(=O)c2ccc(Nc3ncc(NC(=O)c4c(Cl)cccc4Cl)cn3)cc2)CC1 [V, 2,6-Dichloro-N-{2-[4-(4-methyl-piperazine-1-sulfonyl)-phenylamino]-pyrimidin-5-yl}-benzamide] |
| – | – | – | – | – | 286 nM | CC(C)N(CCO)C(=O)c1ccc(Nc2ncc(NC(=O)c3c(Cl)cccc3Cl)cn2)cc1 [XXI, 2,6-Dichloro-N-(2-{4-[(2-hydroxy-ethyl)-isopropyl-carbamoyl]-phenylamino}-pyrimidin-5-yl)-benzamide] |
| – | – | – | – | – | 288 nM | Cc1cccc(C)c1C(=O)Nc1cnc(Nc2cccc(S(=O)(=O)NCCN(C)C)c2)nc1 [I, N-{2-[3-(2-Dimethylamino-ethylsulfamoyl)-phenylamino]-Pyrimidin-5-yl}-2,6-dimethyl-benzamide] |
| – | – | – | – | – | 38 nM | O=C(Nc1cnc(Nc2ccc(S(=O)(=O)N3CCNCC3)cc2)nc1)c1cc(O)ccc1Cl [XLVII, 2-Chloro-5-hydroxy-N-{2-[4-(piperazine-1-sulfonyl)-phenylamino]-Pyrimidin-5-yl}-benzamide] |
| – | – | – | – | – | 550 nM | Cc1c(O)cccc1C(=O)Nc1cnc(Nc2ccc(C(=O)N3CCN(C)CC3)cc2)nc1 [XVII, 2-Methyl-3-hydroxy-N-{2-[4-(4-methyl-piperazine-1-carbonyl)-phenylamino]-pyrimidin-5-yl}-benzamide] |

Source: US20060247250A1 (TargeGen, Inc., priority 2005, published 2006)
